≈ marks a conversion by molar mass, not a printed value. Counter-ions that a name gives are not always drawn. Like-named read-outs stand apart in the source and are kept apart here.
What was measured:
[1] = system: control Gram-negative E. coli 25922 strain; experiment: Antibacterial activity, microbroth dilution MIC, E. coli 25922; format: cell-based, Escherichia coli; conditions: Escherichia coli; E. coli 25922, microbroth dilution; read-out: MIC, 25922
[2] = system: Pseudomonas aeruginosa (P. aeruginosa) 27853; experiment: Antibacterial activity, MIC, P. aeruginosa 27853; format: cell-based; conditions: Pseudomonas aeruginosa, P. aeruginosa 27853; read-out: MIC 27853
Source text: (§1) The antibacterial activity from a microbroth dilution method may be presented as the minimum inhibitory concentration (MIC in […]). The MIC value is the lowest concentration of a drug which prevents macroscopically visible bacterial growth under test conditions.
Antibacterial activity of test compounds against the Gram-negative bacterium Pseudomonas aeruginosa (P. aeruginosa) 27853 is shown in Table 5.

[3] = system: E. coli ELZ4251 (MDR clinical isolate); experiment: Antibacterial activity, MIC, MDR E. coli ELZ4251; format: cell-based, Escherichia coli; conditions: Escherichia coli, E. coli ELZ4251, MDR clinical isolate; read-out: MIC ELZ4251
[4] = system: quinolone resistant E. coli LZ3111; experiment: Antibacterial activity, MIC, quinolone resistant E. coli LZ3111; format: cell-based, Escherichia coli; conditions: Escherichia coli, read-out: MIC, LZ3111
Source text: as §1
Mutations in these regions are known to confer a high level resistance to the quinolone class of antibiotics.

[5] = system: Acinetobacter baumannii (A. baumannii) BAA747; experiment: Antibacterial activity, MIC, A. baumannii BAA747; format: cell-based; conditions: Acinetobacter baumannii; A. baumannii BAA747; read-out: MIC BAA747
[6] = system: super sensitive Gram-negative Escherichia coli (E. coli) BAS849; experiment: Antibacterial activity, microbroth dilution MIC, E. coli BAS849; format: cell-based; conditions: Escherichia coli, read-out: MIC, BAS849
[7] = system: Moraxella catarrhalis (M. catarrhalis) 25238; experiment: Antibacterial activity, MIC, M. catarrhalis 25238; format: cell-based; conditions: Moraxella catarrhalis, M. catarrhalis 25238; read-out: MIC 25238
[8] = system: Gram-positive Staphylococcus aureus (S. aureus) 29213; experiment: Antibacterial activity, microbroth dilution MIC, S. aureus 29213; format: cell-based; conditions: Staphylococcus aureus; S. aureus 29213, microbroth dilution; read-out: MIC, 29213
[9] = system: E. coli ELZ4000 (MDR clinical isolate); experiment: Antibacterial activity, MIC, MDR E. coli ELZ4000; format: cell-based, Escherichia coli; conditions: Escherichia coli; E. coli ELZ4000, MDR clinical isolate; read-out: MIC ELZ4000
[10] = system: Haemophilus influenzae (H. influenzae) 49247; experiment: Antibacterial activity, MIC, H. influenzae 49247; format: cell-based; conditions: Haemophilus influenzae; H. influenzae 49247; read-out: MIC 49247
Procedure, shortened: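 A microbroth dilution method gave the minimum inhibitory concentration for each compound against H. influenzae 49247, a Gram-negative bacterium. MIC means the smallest concentration of drug at which no macroscopically visible bacterial growth appears under the conditions of the test.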

[11] = system: Neisseria meningitidis (N. meningitidis) 13090; experiment: Antibacterial activity, MIC, N. meningitidis 13090; format: cell-based; conditions: Neisseria meningitidis; N. meningitidis 13090; read-out: MIC 13090
[12] = E. coli BAS849, microbroth dilution

Row | SMILES | MIC [1] [µg/mL] | MIC [2] [µg/mL] | MIC [3] [µg/mL] | MIC [4] [µg/mL] | MIC [5] [µg/mL] | MIC [6, 12] [µg/mL] | MIC [7] [µg/mL] | MIC [8] [µg/mL] | MIC [9] [µg/mL] | MIC [10] [µg/mL] | MIC [11] [µg/mL] | MIC [6] [µg/mL]
1 | CCc1cc(C(=O)O)c(=O)[nH]c1-c1ccccc1 [Cpd 75, 5-ethyl-2-oxo-6-phenyl-1,2-dihydropyridine-3-carboxylic acid] | 12.5 to 150 (≈ 51.4 to 617 µM) | 12.5 to 150 (≈ 51.4 to 617 µM) | 12.5 to 150 (≈ 51.4 to 617 µM) | 12.5 to 150 (≈ 51.4 to 617 µM) | 12.5 to 150 (≈ 51.4 to 617 µM) | 1 to 3.5 (≈ 4.11 to 14.4 µM) | 12.5 to 150 (≈ 51.4 to 617 µM) | 12.5 to 150 (≈ 51.4 to 617 µM) | 12.5 to 150 (≈ 51.4 to 617 µM) | – | – | –
2 | CCc1cc(C(=O)O)c(=O)[nH]c1-c1ccc(N2CCOCC2)c(F)c1 [Cpd 84, 5-ethyl-6-[3-fluoro-4-(morpholin-4-yl)phenyl]-2-oxo-1,2-dihydropyridine-3-carboxylic acid] | 12.5 to 150 (≈ 36.1 to 433 µM) | 12.5 to 150 (≈ 36.1 to 433 µM) | 12.5 to 150 (≈ 36.1 to 433 µM) | 12.5 to 150 (≈ 36.1 to 433 µM) | 12.5 to 150 (≈ 36.1 to 433 µM) | 3.5 to 12.5 (≈ 10.1 to 36.1 µM) | 3.5 to 12.5 (≈ 10.1 to 36.1 µM) | 12.5 to 150 (≈ 36.1 to 433 µM) | 12.5 to 150 (≈ 36.1 to 433 µM) | < 1 | 1 to 3.5 (≈ 2.89 to 10.1 µM) | –
3 | CCc1cc(C(=O)O)c(=O)[nH]c1-c1ccc(N2CCC(OCc3ccccc3)C2)cc1 (stereo not shown) [Cpd 128, 6-{4-[3-(benzyloxy)pyrrolidin-1-yl]phenyl}-5-ethyl-2-oxo-1,2-dihydropyridine-3-carboxylic acid] | 12.5 to 150 (≈ 29.9 to 358 µM) | 12.5 to 150 (≈ 29.9 to 358 µM) | 12.5 to 150 (≈ 29.9 to 358 µM) | 12.5 to 150 (≈ 29.9 to 358 µM) | – | < 1 | < 1 | 1 to 3.5 (≈ 2.39 to 8.36 µM) | 12.5 to 150 (≈ 29.9 to 358 µM) | 1 to 3.5 (≈ 2.39 to 8.36 µM) | < 1 | –
4 | CCc1cc(C(=O)O)c(=O)[nH]c1-c1ccc(N2CCC(N3CCOCC3)C2)cc1.O=C(O)C(F)(F)F (stereo not shown) [Cpd 140, 5-ethyl-6-{4-[3-(morpholin-4-yl)pyrrolidin-1-yl]phenyl}-2-oxo-1,2-dihydropyridine-3-carboxylic acid trifluoroacetate] | 3.5 to 12.5 | 12.5 to 150 | 12.5 to 150 | 12.5 to 150 | – | – | < 1 | 12.5 to 150 | 12.5 to 150 | < 1 | < 1 | < 1
5 | CCc1cc(C(=O)O)c(=O)[nH]c1-c1ccc(N2CCC[C@@H]2C(F)(F)F)cc1 [Cpd 141, 5-ethyl-2-oxo-6-{4-[(2R)-2-(trifluoromethyl)pyrrolidin-1-yl]phenyl}-1,2-dihydropyridine-3-carboxylic acid] | 12.5 to 150 (≈ 32.9 to 394 µM) | 12.5 to 150 (≈ 32.9 to 394 µM) | 12.5 to 150 (≈ 32.9 to 394 µM) | 12.5 to 150 (≈ 32.9 to 394 µM) | – | < 1 | < 1 | 3.5 to 12.5 (≈ 9.2 to 32.9 µM) | 12.5 to 150 (≈ 32.9 to 394 µM) | < 1 | < 1 | –
6 | CCc1cc(C(=O)O)c(=O)[nH]c1-c1ccc(N2CCC(F)(F)C2)cc1 [Cpd 144, 6-[4-(3,3-difluoropyrrolidin-1-yl)phenyl]-5-ethyl-2-oxo-1,2-dihydropyridine-3-carboxylic acid] | 1 to 3.5 (≈ 2.87 to 10 µM) | 12.5 to 150 (≈ 35.9 to 431 µM) | 12.5 to 150 (≈ 35.9 to 431 µM) | 12.5 to 150 (≈ 35.9 to 431 µM) | – | < 1 | < 1 | 3.5 to 12.5 (≈ 10 to 35.9 µM) | 12.5 to 150 (≈ 35.9 to 431 µM) | < 1 | < 1 | –
7 | CCc1cc(C(=O)O)c(=O)[nH]c1-c1ccc(N2CCC[C@@H]2COC)cc1 [Cpd 147, 5-ethyl-6-{4-[(2R)-2-(methoxymethyl)pyrrolidin-1-yl]phenyl}-2-oxo-1,2-dihydropyridine-3-carboxylic acid] | 3.5 to 12.5 (≈ 9.82 to 35.1 µM) | 12.5 to 150 (≈ 35.1 to 421 µM) | 12.5 to 150 (≈ 35.1 to 421 µM) | 12.5 to 150 (≈ 35.1 to 421 µM) | – | < 1 | < 1 | 3.5 to 12.5 (≈ 9.82 to 35.1 µM) | 12.5 to 150 (≈ 35.1 to 421 µM) | < 1 | < 1 | –
8 | CCc1cc(C(=O)O)c(=O)[nH]c1-c1ccc(N2CC[C@@H](N(C)C)C2)cc1.O=C(O)C(F)(F)F [Cpd 150, 6-{4-[(3R)-3-(dimethylamino)pyrrolidin-1-yl]phenyl}-5-ethyl-2-oxo-1,2-dihydropyridine-3-carboxylic acid trifluoroacetate] | 1 to 3.5 | 12.5 to 150 | 12.5 to 150 | 12.5 to 150 | – | – | < 1 | 12.5 to 150 | 12.5 to 150 | < 1 | < 1 | < 1
9 | CCc1cc(C(=O)O)c(=O)[nH]c1-c1ccc(N2CC[C@H](N(C)C)C2)cc1.Cl [Cpd 151, 6-{4-[(3S)-3-(dimethylamino)pyrrolidin-1-yl]phenyl}-5-ethyl-2-oxo-1,2-dihydropyridine-3-carboxylic acid hydrochloride] | 1 to 3.5 | 12.5 to 150 | 12.5 to 150 | 12.5 to 150 | – | < 1 | < 1 | 12.5 to 150 | 12.5 to 150 | < 1 | < 1 | –
10 | CCc1cc(C(=O)O)c(=O)[nH]c1-c1ccc(N2CC[C@@H](F)C2)cc1 [Cpd 154, 5-ethyl-6-{4-[(3R)-3-fluoropyrrolidin-1-yl]phenyl}-2-oxo-1,2-dihydropyridine-3-carboxylic acid] | 1 to 3.5 (≈ 3.03 to 10.6 µM) | 12.5 to 150 (≈ 37.8 to 454 µM) | 12.5 to 150 (≈ 37.8 to 454 µM) | 12.5 to 150 (≈ 37.8 to 454 µM) | – | < 1 | < 1 | 3.5 to 12.5 (≈ 10.6 to 37.8 µM) | 12.5 to 150 (≈ 37.8 to 454 µM) | < 1 | < 1 | –
11 | CCc1cc(C(=O)O)c(=O)[nH]c1-c1ccc(Nc2ccccc2)cc1 [Cpd 155, 5-ethyl-2-oxo-6-[4-(phenylamino)phenyl]-1,2-dihydropyridine-3-carboxylic acid] | 1 to 3.5 (≈ 2.99 to 10.5 µM) | 12.5 to 150 (≈ 37.4 to 449 µM) | 12.5 to 150 (≈ 37.4 to 449 µM) | 12.5 to 150 (≈ 37.4 to 449 µM) | – | < 1 | < 1 | 3.5 to 12.5 (≈ 10.5 to 37.4 µM) | 12.5 to 150 (≈ 37.4 to 449 µM) | < 1 | < 1 | –
12 | CCc1cc(C(=O)O)c(=O)[nH]c1-c1ccc(N2CCC[C@H]2C(=O)O)cc1 [Cpd 157, 6-{4-[(2S)-2-carboxypyrrolidin-1-yl]phenyl}-5-ethyl-2-oxo-1,2-dihydropyridine-3-carboxylic acid] | 3.5 to 12.5 (≈ 9.82 to 35.1 µM) | 12.5 to 150 (≈ 35.1 to 421 µM) | 12.5 to 150 (≈ 35.1 to 421 µM) | 12.5 to 150 (≈ 35.1 to 421 µM) | – | < 1 | < 1 | 12.5 to 150 (≈ 35.1 to 421 µM) | 12.5 to 150 (≈ 35.1 to 421 µM) | < 1 | < 1 | –
13 | CCc1c(-c2ccc(N3C[C@@H]4[C@H](C3)[C@H]4N(C)C)cc2)[nH]c(=O)c(C(=O)O)c1O [Cpd 271, 6-{4-[(1R,5S,6s)-6-(dimethylamino)-3-azabicyclo[3.1.0]hex-3-yl]phenyl}-5-ethyl-4-hydroxy-2-oxo-1,2-dihydropyridine-3-carboxylic acid hydrochloride] | 3.5 to 12.5 | 12.5 to 150 | 3.5 to 12.5 | 3.5 to 12.5 | 12.5 to 150 | < 1 | – | 12.5 to 150 | 12.5 to 150 | – | – | –
14 | CCc1c(-c2ccc(N3CC=CC3)cc2)[nH]c(=O)c(C(=O)O)c1O [Cpd 302, 6-[4-(2,5-dihydro-1H-pyrrol-1-yl)phenyl]-5-ethyl-4-hydroxy-2-oxo-1,2-dihydropyridine-3-carboxylic acid] | 1 to 3.5 (≈ 3.06 to 10.7 µM) | 3.5 to 12.5 (≈ 10.7 to 38.3 µM) | 12.5 to 150 (≈ 38.3 to 460 µM) | 12.5 to 150 (≈ 38.3 to 460 µM) | – | < 1 | < 1 | < 1 | 12.5 to 150 (≈ 38.3 to 460 µM) | < 1 | < 1 | –
15 | CCc1c(-c2ccc(N3C[C@@H](O)[C@@H](O)C3)cc2)[nH]c(=O)c(C(=O)O)c1O [Cpd 304, 6-{4-[(3R,4S)-3,4-dihydroxypyrrolidin-1-yl]phenyl}-5-ethyl-4-hydroxy-2-oxo-1,2-dihydropyridine-3-carboxylic acid] | 3.5 to 12.5 (≈ 9.71 to 34.7 µM) | 12.5 to 150 (≈ 34.7 to 416 µM) | 12.5 to 150 (≈ 34.7 to 416 µM) | 12.5 to 150 (≈ 34.7 to 416 µM) | – | < 1 | < 1 | 3.5 to 12.5 (≈ 9.71 to 34.7 µM) | 12.5 to 150 (≈ 34.7 to 416 µM) | < 1 | < 1 | –
16 | CN(C)c1ccc(-c2ccc(C(=O)O)c(=O)[nH]2)cc1 [Cpd 310, 6-[4-(dimethylamino)phenyl]-2-oxo-1,2-dihydropyridine-3-carboxylic acid] | 12.5 to 150 (≈ 48.4 to 581 µM) | 12.5 to 150 (≈ 48.4 to 581 µM) | 12.5 to 150 (≈ 48.4 to 581 µM) | 12.5 to 150 (≈ 48.4 to 581 µM) | 12.5 to 150 (≈ 48.4 to 581 µM) | 12.5 to 150 (≈ 48.4 to 581 µM) | 12.5 to 150 (≈ 48.4 to 581 µM) | 12.5 to 150 (≈ 48.4 to 581 µM) | 12.5 to 150 (≈ 48.4 to 581 µM) | – | – | –

From patent publication US9650395B2, “Antibacterial compounds and methods for use” (PTC Therapeutics, Inc., priority 2011, dated 2017)
